Biological target: T1, GPX4 (Mus musculus, UniProt O70325)
T1 sequence (O70325 28-197): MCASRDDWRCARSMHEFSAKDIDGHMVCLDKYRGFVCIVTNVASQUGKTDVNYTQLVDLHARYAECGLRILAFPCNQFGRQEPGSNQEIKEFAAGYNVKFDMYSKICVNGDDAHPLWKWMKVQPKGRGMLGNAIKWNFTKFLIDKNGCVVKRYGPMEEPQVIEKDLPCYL
Experiment: cellular thermal shift assay
Format: cell-based

## COc1ccc(N(C(=O)CCl)C(C(=O)NCCc2ccccc2)c2cccs2)cc1Cl (stereo not shown) [ML162]
  cellular thermal shift assay (CETSA): Both the GPX4-targeting ligand ML162 and ML-NR were found to enhance the thermal stability of the GPX4 protein

Source: publication PMC11846984 (Nature Communications, 2025)
